We go through three molecules from patent US20260201008A1, “SECRETIN-DERIVED GLP1R SELECTIVE AGONISTS” (GUBRA A/S, priority 2023, published 2026).

Numbered stars: 1 amine (or outer) side, 2 acyl side, 3 side chain; on linkers, the order of the positions; unused ones are H or OH. Square brackets hold non-standard residues; d marks the D form. Side chains are listed from the residue outwards. Peptide text beside a SMILES is read from it. * marks the point of attachment. C20 diacid = O=C(O)CCCCCCCCCCCCCCCCCCC(=O)*; γGlu = O=C(O)[C@H](CCC(=O)[*:2])N[*:1]; AEEA = NCCOCCOCC(=O)O; Aib = CC(C)(N)C(=O)O

The nature of data set [1]: Turbidity of crude library peptides (absorbance at 600 nm). In kind it is physicochemical. The settings on record: Physical stability of peptides. In a few lines:
(§1)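 Turbidity is the absorbance at 600 nm, taken before heating. Fibril signal is the mean ThT emission at 480 nm (450 nm excitation), read every 10 min over 72 h at 40° C with 700 rpm shaking between reads. Peptides at 267 μM, pH 4.0 acetate or pH 7.0 phosphate buffer (50 mM), 4 μM ThT final.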

Data set [2] can be described thus: Fibril formation of crude library peptides (Thioflavin T). Conditions: Physical stability of peptides. Type of data set: physicochemical. More on the design: key: average ThT fluorescence emission at 480 nm (ex 450 nm), raw units. In a few lines:
as §1

In data set [3] the target is GLP1R (Homo sapiens, UniProt P43220). The data set is described as follows: hGLP1R potency, cAMP accumulation in CHO-K1 cells stably overexpressing hGLP1R. Type of data set: cell-based. Also noted: host or cells: CHO-K1. The settings on record: for Selectivity: SCTR EC50/GLP1R EC50 ratio; for EC50: cAMP accumulation, CHO-K1 cells overexpressing hGLP1R, read-out: pEC50 hGLPR1 (converted). In a few lines: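 EC50 derives from variable-slope nonlinear regression of cAMP HTRF signal, with purified peptides tested as 11 three-fold dilutions in duplicate. Assay: hGLP1R-overexpressing CHO-K1 cells, 0.5 mM IBMX, 0.05% casein in DPBS, 30 min room-temperature stimulation, GLP-1(7-36) as reference agonist.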
(In general: Cyclic AMP is a second messenger, typically raised through Gs and lowered through Gi signalling.)

Data set [4] concerns the target SCTR (Homo sapiens, UniProt P47872). The experiment in a line: hSCTR potency, cAMP accumulation in CHO-K1 cells stably overexpressing hSCTR. Type of data set: cell-based. Also noted: alternatively Euroscreen ES-712-AF; FAST-0161L; host or cells: CHO-K1. Conditions: cAMP accumulation, CHO-K1 cells overexpressing hSCTR; read-out: pEC50 hSCTR (converted). The procedure, abridged:
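EC50 derived from variable-slope nonlinear regression on 11-point, 3-fold series run in duplicate (crude peptides: 5 points, 10-fold, n=1). Compound stimulation lasted 30 min at room temperature in casein/IBMX-containing DPBS (0.05%, 0.5 mM), 2000 cells/well; cAMP detected by time-resolved FRET after one hour.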

Chain of GLP1R (P43220 24-463): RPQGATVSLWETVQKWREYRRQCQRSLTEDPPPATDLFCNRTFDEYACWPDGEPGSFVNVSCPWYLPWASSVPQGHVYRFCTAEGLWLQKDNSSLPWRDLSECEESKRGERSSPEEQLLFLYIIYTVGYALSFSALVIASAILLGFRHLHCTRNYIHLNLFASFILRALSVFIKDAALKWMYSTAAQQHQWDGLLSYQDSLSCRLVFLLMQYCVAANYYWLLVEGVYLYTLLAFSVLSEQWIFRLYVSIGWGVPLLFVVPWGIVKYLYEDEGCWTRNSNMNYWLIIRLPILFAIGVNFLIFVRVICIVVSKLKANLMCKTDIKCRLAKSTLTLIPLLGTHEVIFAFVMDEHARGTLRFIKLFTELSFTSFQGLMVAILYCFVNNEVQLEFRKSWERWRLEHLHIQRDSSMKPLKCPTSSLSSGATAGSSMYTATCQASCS
Chain of SCTR (P47872 23-440): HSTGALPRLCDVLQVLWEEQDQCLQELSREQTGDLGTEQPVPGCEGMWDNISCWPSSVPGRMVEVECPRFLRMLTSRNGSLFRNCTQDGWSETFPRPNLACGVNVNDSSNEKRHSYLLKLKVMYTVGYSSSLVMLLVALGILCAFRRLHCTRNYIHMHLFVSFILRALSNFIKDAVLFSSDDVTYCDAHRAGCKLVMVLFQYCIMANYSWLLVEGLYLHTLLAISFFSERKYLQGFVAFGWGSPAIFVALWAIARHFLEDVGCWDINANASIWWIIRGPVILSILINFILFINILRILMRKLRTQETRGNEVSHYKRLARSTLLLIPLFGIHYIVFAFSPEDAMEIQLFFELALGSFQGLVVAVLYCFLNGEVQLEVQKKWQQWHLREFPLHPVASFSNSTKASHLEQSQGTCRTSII

As for `CC(C)C[C@H](NC(=O)[C@H](Cc1ccccc1)NC(=O)[C@H](CCCNC(=N)N)NC(=O)[C@H](CCC(N)=O)NC(=O)[C@H](CO)NC(=O)[C@H](C)NC(=O)[C@H](C)NC(=O)[C@H](CCC(=O)O)NC(=O)[C@H](CCC(=O)O)NC(=O)[C@H](CCCCNC(=O)COCCOCCNC(=O)COCCOCCNC(=O)CC[C@H](NC(=O)CCCCCCCCCCCCCCCCCCC(=O)O)C(=O)O)NC(=O)[C@H](CC(C)C)NC(=O)[C@H](Cc1ccccc1)NC(=O)[C@H](CO)NC(=O)[C@@H](NC(=O)[C@H](CC(=O)O)NC(=O)[C@H](CO)NC(=O)[C@@H](NC(=O)[C@H](Cc1ccccc1)NC(=O)[C@@H](NC(=O)CNC(=O)[C@H](CCC(=O)O)NC(=O)C(C)(C)NC(=O)[C@@H](N)Cc1c[nH]cn1)[C@@H](C)O)[C@@H](C)O)C(C)C)C(=O)N[C@@H](CCC(=O)O)C(=O)N[C@@H](Cc1c[nH]cn1)C(=O)N[C@@H](CC(C)C)C(=O)N[C@H](C(N)=O)C(C)C` [compound 38] (H-H[Aib]EGTFTSDVSFLK([AEEA-AEEA-γGlu-C20 diacid])EEAASQRFLEHLV-NH2), the “Turbidity (pH 7)” value in data set [1] came to 0.09. This molecule also displayed a Fibril formation in data set [2] of 38424. Further, in data set [3], the Selectivity is listed as 35785 and the EC50 was 0.0316 nM. Also, the EC50 in data set [4] is 1000 nM.
As for `CC(C)C[C@H](NC(=O)[C@H](Cc1ccccc1)NC(=O)[C@H](CCCNC(=N)N)NC(=O)[C@H](CCC(N)=O)NC(=O)[C@H](CCC(N)=O)NC(=O)[C@H](C)NC(=O)[C@H](C)NC(=O)[C@H](CCC(=O)O)NC(=O)[C@H](CCC(=O)O)NC(=O)[C@H](CCCCNC(=O)COCCOCCNC(=O)COCCOCCNC(=O)CC[C@H](NC(=O)CCCCCCCCCCCCCCCCCCC(=O)O)C(=O)O)NC(=O)[C@H](CC(C)C)NC(=O)[C@@H](NC(=O)[C@H](CO)NC(=O)[C@@H](NC(=O)[C@H](CC(=O)O)NC(=O)[C@H](CO)NC(=O)[C@@H](NC(=O)[C@H](Cc1ccccc1)NC(=O)[C@@H](NC(=O)CNC(=O)[C@H](CCC(=O)O)NC(=O)C(C)(C)NC(=O)[C@@H](N)Cc1c[nH]cn1)[C@@H](C)O)[C@@H](C)O)C(C)C)[C@@H](C)O)C(=O)N[C@@H](CCC(=O)O)C(=O)N[C@@H](Cc1c[nH]cn1)C(=O)N[C@@H](CC(C)C)C(=O)N[C@H](C(N)=O)C(C)C` [compound 39] (H-H[Aib]EGTFTSDVSTLK([AEEA-AEEA-γGlu-C20 diacid])EEAAQQRFLEHLV-NH2), the “Turbidity (pH 7)” value in data set [1] is listed as 0.08. For the same molecule, the Fibril formation in data set [2] stood at 9592. For the same molecule, in data set [3], the Selectivity was found to be 17346 and the EC50 is 0.0158 nM. Further, the EC50 in data set [4] is 316 nM.
In the case of `CC(C)C[C@H](NC(=O)[C@H](Cc1ccccc1)NC(=O)[C@H](CCCNC(=N)N)NC(=O)[C@H](CCC(N)=O)NC(=O)[C@H](CCC(N)=O)NC(=O)[C@H](C)NC(=O)[C@H](C)NC(=O)C(C)(C)NC(=O)[C@H](CCC(=O)O)NC(=O)[C@H](CCCCNC(=O)COCCOCCNC(=O)COCCOCCNC(=O)CC[C@H](NC(=O)CCCCCCCCCCCCCCCCCCC(=O)O)C(=O)O)NC(=O)[C@H](CC(C)C)NC(=O)[C@@H](NC(=O)[C@H](CO)NC(=O)[C@@H](NC(=O)[C@H](CC(=O)O)NC(=O)[C@H](CO)NC(=O)[C@@H](NC(=O)[C@H](Cc1ccccc1)NC(=O)[C@@H](NC(=O)CNC(=O)[C@H](CCC(=O)O)NC(=O)C(C)(C)NC(=O)[C@@H](N)Cc1c[nH]cn1)[C@@H](C)O)[C@@H](C)O)C(C)C)C(C)C)C(=O)N[C@@H](CCC(=O)O)C(=O)N[C@@H](Cc1c[nH]cn1)C(=O)N[C@@H](CC(C)C)C(=O)N[C@H](C(N)=O)C(C)C` [compound 40] (H-H[Aib]EGTFTSDVSVLK([AEEA-AEEA-γGlu-C20 diacid])E[Aib]AAQQRFLEHLV-NH2), the “Turbidity (pH 7)” value in data set [1] worked out at 0.08. Also, the Fibril formation in data set [2] worked out at 12180. For the same molecule, the Selectivity in data set [3] stood at 21943. Further, the EC50 in data set [3] is 0.02 nM; in data set [4], 398 nM.
